According to PMC4222603, “Dual inhibition of HIV-1 replication by integrase-LEDGF allosteric inhibitors is predominant at the post-integration stage” (Retrovirology, 2013):

Experiments:
[1] = system: NL4-3 Protease L10R, M46I, L63P, V82T, I84V; assay: Antiviral assay on PI-resistant virus; type: cell-based, HIV-1; settings: ratio EC50 resistant virus / wt virus
[2] = system: NL4-3 RT M41L, D67N, K103N, M184V, L210W, T215Y; assay: Antiviral assay on Multi-drug (NRTI + NNRTI) resistant virus; type: cell-based, HIV-1; settings: ratio EC50 resistant virus / wt virus; NRTI + NNRTI mutations
[3] = target: T1, IN 3′ processing activity (Human immunodeficiency virus type 1 group M subtype B, UniProt P12497); assay: IN 3′ processing radioactive assay; type: biochemical, HIV-1; settings: 0.01 to 100 μM
T1 construct: were carried out at 37°C with the full-length HIV-1 IN
Text: Sequences of the different oligonucleotides (ODN) substrates are U5B: 5′-[…]-3′, U5A: 5′- […]-3′ and U5B-2: 5′-[…]-3′. ODNs were purchased from Eurogentec and further purified by electrophoresis in a denaturing 16% acrylamide/urea gel. For activity assays, ODNs (U5B and U5B-2) were radiolabelled with T4 polynucleotide kinase (New England Biolabs) and γ[^32-P]ATP (3000 Ci/mmol) (Amersham), and purified on a Sephadex G-10 column (GE Healthcare). Double-stranded ODNs (U5B with U5A and U5B-2 with U5A used for 3′-processing and strand transfer reactions, respectively) were obtained by mixing equimolar amounts of complementary strands in the presence of 100 mM NaCl.
IN activity assays – 3′-processing, strand transfer – were carried out at 37°C with the full-length HIV-1 IN, in a buffer containing 10 mM HEPES (pH 7.2), 1 mM DTT, 7.5 mM MgCl2 in the presence of 6.25 nM DNA (3′-processing) or 12.5 nM DNA (strand transfer) as described previously. For negative control, 100 mM Na2EDTA was added to the reaction before incubation. Products were separated by electrophoresis in denaturing 16% acrylamide/urea gels. Gels were analysed with a Molecular Dynamics STORM phosphoimager and quantified with ImageQuant™ 4.1 software.

HIV-1 mutant IN A128T = assay: Antiretroviral activity on HIV-1 mutant IN A128T; type: cell-based
[4] = system: VSV-G-pseudotyped HIV-1 Δenv-Luc NL4-3; assay: Time-of-addition experiment, single-round infection of MT4 cells; type: cell-based; settings: 25 μM (saturating)
[5] = system: HIV-1 proviral DNA (late reverse transcription product, integrated DNA); assay: Quantification of viral cDNA by real-time PCR in infected MT4 cells; type: cell-based
Description: Prior to infection, viral stocks were treated 1 h at 37°C with 100 U per mL of DNAseI (Roche Applied Science). MT4 cells (6x10^6) were infected with virus at MOI = 0.001. At 7 h, 24 h and 48 h post-infection, cells were harvested, washed twice in PBS and DNA was extracted using the QIAamp Blood DNA Minikit (Qiagen). Quantifications of viral DNA were performed by real-time PCR using the LightCycler 480 system (Roche Applied Science). Primers, probes, and PCR run conditions were described previously. The copy number of HIV-1 late reverse transcription product (LRT) was determined using standard curves obtained by amplification of cloned DNA containing the matched sequences. The copy number of integrated HIV-1 DNA was determined in reference to a standard curve generated by concomitant two-stage PCR amplification of a serial dilution of the standard HeLa HIVR7-Neo cell DNA [59]. Copy numbers of each viral form were normalized with the number of cells obtained by the quantification by PCR of the β-globin gene according to the manufacturer instructions (Roche Applied Science).

## Cc1nc2c(c(-c3ccc4c(c3)CCCO4)c1C(OC(C)(C)C)C(=O)O)CCCC2 (stereo not shown) [Mut101, 2-(tert-butoxy)-2-[4-(3,4-dihydro-2H-1-benzopyran-6-yl)-2-methyl-5,6,7,8-tetrahydroquinolin-3-yl]acetic acid]
[1]
  EC50 fold change PI: 1
[2]
  EC50 fold change Multi-drug: 1
[3]
  Maximum inhibition of IN 3′ processing: 25-30%
HIV-1 mutant IN A128T
  ARV activity on HIV-1 mutant IN A128T: full ARV activity
[4]
  Behaviour in time-of-addition experiment: behaved as an inhibitor of integration
[5]
  Integration of the proviral DNA (qPCR): inhibited the integration of the proviral DNA
  Production of proviral DNA at reverse transcription (qPCR): not the production of proviral DNA at reverse transcription
